We go through 124 compounds from a melting point compilation (Tetko et al.).

Molecules are shown by their SMILES.

Regarding `C=CCNc1ccc(C(F)(F)F)cc1C#N`, the melting point was in the range of 54 to 56 °C.

With `N#Cc1cc(F)c(S(=O)(=O)Cl)c(F)c1`, the melting point lay within 92 to 94 °C.

As to `CON(C)S(=O)(=O)c1cccc(C(=O)O)c1`, the melting point lay within 134 to 138 °C.

The compound `CN(C)c1nc(=NN)cc[nH]1` showed a melting point of 144 to 146 °C.

`CC(C(=O)O)=C1CCCC1` displayed a melting point of 107 to 109 °C.

On to `N#CCCn1cc(C(=O)CCl)c2ccccc21`, for which the melting point was 138 to 140 °C.

The compound `O=c1[nH]c(-c2ccccc2Br)cs1` displayed a melting point of 169 to 171 °C.

In the case of `Cc1nn(C)c(C)c1NC(=O)CCl`, the melting point is 107 to 109 °C.

For the compound `Cc1ccc(C(=O)O)cc1NC(=O)c1ccc(Br)cc1`, the melting point lay in the range of 309 to 311 °C.

`COc1ccc(S(N)(=O)=O)cc1C(=O)O` registered a melting point of 224 to 226 °C.

Compound `Cc1cc(C)c(C(=O)O)o1` registered a melting point of 145 to 147 °C.

`O=C(O)Cc1csc(-c2ccco2)n1` had a melting point of 136 to 138 °C.

`O=C(CSc1ccccc1C(=O)O)NC1CCCCCCC1` yielded a melting point of 168 to 170 °C.

In turn, `Nc1cc(Cl)c(S(N)(=O)=O)cc1[N+](=O)[O-]` showed a melting point of 257 to 259 °C.

As for `CN1C(=O)CCC(C(=O)O)C1c1ccc(C(F)(F)F)cc1` (centres undefined), the melting point was 188 to 190 °C.

`CC1(CCCC(=O)O)NC(=O)NC1=O` (centres undefined) returned a melting point of 149 to 151 °C.

Turning to `O=C1CN=C(S)N1c1ccccc1`, the melting point was in the range of 253 to 255 °C.

The compound `Cc1cc(C=O)c(C)n1CC(C)C` gave a melting point of 43 to 47 °C.

Compound `Nc1ccc(Sc2cccs2)cn1` returned a melting point of 77 to 79 °C.

Consider `ClCc1ccc(I)cc1`, for which the melting point lay in the range of 49 to 51 °C.

In turn, `Cc1ccc(NC(=S)NN)cc1C` yielded a melting point of 176 to 178 °C.

Regarding `COc1ccc2ccccc2c1-c1cc(CBr)on1`, the melting point is 85 to 87 °C.

`CC(O)c1ccc(O)cc1` (centres undefined) had a melting point of 131 to 133 °C.

For `CCN(CC)CC(=O)Nc1ccc(C(F)(F)F)cc1N`, the melting point fell in the range of 94 to 96 °C.

As for `CCC(=CC(=O)O)c1ccccc1`, the melting point was in the range of 92 to 94 °C.

As for `CC(=O)c1cc2nc(C)ccc2o1`, the melting point lay within 119 to 121 °C.

Take `O=C(O)c1ccc(-c2ccccc2)cc1F`: the melting point lay in the range of 187 to 189 °C.

The compound `CN(C)S(=O)(=O)c1ccc(C(=O)O)o1` returned a melting point of 177 to 179 °C.

Take `CNC(=S)NC1CC1`: the melting point is 108 to 110 °C.

`O=C(O)c1sc2cccc([N+](=O)[O-])c2c1Cl` gave a melting point of 219 to 221 °C.

As to `O=S(=O)(c1ccc(Br)s1)N1CCNCC1`, the melting point was 195 to 205 °C.

In the case of `O=C(O)c1ccc(Br)cc1OC(F)F`, the melting point lay in the range of 133 to 135 °C.

Compound `O=C1CCCc2ccc(F)cc21` registered a melting point of 56 to 58 °C.

As for `COc1cc2c(c(OC)c1OC)CCNCC2`, the melting point was in the range of 60 to 62 °C.

Consider `Cc1c(C(=O)O)oc2c1ccc1ccccc12`, for which the melting point lay in the range of 206 to 208 °C.

`COc1ccc(C(=O)O)cc1OCCO` came in with a melting point of 190 to 192 °C.

Consider `Cc1nc(Cc2ccccn2)sc1C(=O)O`, for which the melting point lay in the range of 189 to 191 °C.

`COc1ccc(S(=O)(=O)Cl)c2ccccc12` had a melting point of 95 to 97 °C.

The compound `Cc1n[nH]c(N)c1-c1ccc2c(c1)OCCO2` registered a melting point of 120 to 122 °C.

`CC(C)(C)c1cc(C(=O)O)[nH]n1` registered a melting point of 195 to 197 °C.

Regarding `O=Cc1cncc2ccccc12`, the melting point fell in the range of 103 to 105 °C.

In turn, `CC(C)c1nc(C#N)c(NN)o1` came in with a melting point of 103 to 105 °C.

As to `CSc1ccc(N)cc1Cl`, the melting point is 74 to 76 °C.

`O=C(NO)c1ccc(Br)s1` came in with a melting point of 152 to 160 °C.

Compound `CCOC(=O)c1snc(C(N)=O)c1N` had a melting point of 205 to 207 °C.

As to `Cc1cc(C#N)ccc1O`, the melting point fell in the range of 89 to 91 °C.

Take `COc1cc(OC)c(S(N)(=O)=O)cc1Br`: the melting point lay in the range of 257 to 259 °C.

As for `CC(O)c1c(Cl)nc2ccccn12` (centres undefined), the melting point is 132 to 134 °C.

Compound `CNc1ccc(OCCOC)cc1` had a melting point of 59 to 61 °C.

Compound `CC(Oc1ccc(C=CC(=O)O)cc1F)c1ccccc1` (centres undefined) came in with a melting point of 168 to 170 °C.

On to `O=C(O)c1nn(-c2ccc(F)cc2)cc1O`, for which the melting point lay within 227 to 229 °C.

`CCOc1ccc2c(c1)NC(=O)C2=O`: the melting point fell in the range of 226 to 228 °C.

For `Cc1ccc(CNC(=O)c2cccc(C#N)c2)cc1`, the melting point was 134 to 136 °C.

For `Nc1cc(-c2c(F)cc(F)cc2F)no1`, the melting point lay in the range of 131 to 133 °C.

`Cc1ccc(-c2nnc(N)[nH]2)c(C)c1` displayed a melting point of 211 to 213 °C.

As for `CCN1C(=O)NC(C)C1=O` (centres undefined), the melting point lay in the range of 51 to 53 °C.

The compound `Cc1cc(C)c(S(=O)(=O)Nc2cccc(C(F)(F)F)c2)c(C)c1` yielded a melting point of 88 to 90 °C.

In turn, `O=C(O)Cn1nccn1` displayed a melting point of 129 to 131 °C.

`Nc1ncc(C(O)(C(F)(F)F)C(F)(F)F)s1` had a melting point of 184 to 186 °C.

Consider `Cc1cc(=O)n2nc(N)[nH]c2n1`, for which the melting point was 367 to 369 °C.

In the case of `Cc1ccc(S(=O)(=O)N2CCCCC2)cc1C(=O)O`, the melting point fell in the range of 197 to 199 °C.

`O=C(O)c1ccc(S(=O)(=O)Cl)cc1Cl` showed a melting point of 133 to 135 °C.

With `O=C(O)c1ccc(-c2nc3ccccc3s2)s1`, the melting point was in the range of 254 to 256 °C.

Take `CSc1ccsc1C(=O)O`: the melting point was in the range of 194 to 196 °C.

Regarding `Cc1ccc(N2C(=O)Cc3ccccc3C2=O)cc1`, the melting point fell in the range of 173 to 175 °C.

As for `Cc1cc(=O)[nH]c(-c2ccncc2)n1`, the melting point lay in the range of 241 to 243 °C.

As for `Nc1nnc(-c2cccs2)[nH]1`, the melting point lay in the range of 202 to 204 °C.

In the case of `COC(=O)c1ccc(Cl)c(S(=O)(=O)Cl)c1`, the melting point is 103 to 105 °C.

In turn, `COC(=O)C1CCc2ccccc2C1=O` (centres undefined) had a melting point of 71 to 73 °C.

`Cc1cnc(Br)nc1Br`: the melting point lay within 58 to 60 °C.

Take `c1cc(OCC2CO2)c2cc[nH]c2c1` (centres undefined): the melting point lay in the range of 52 to 54 °C.

The compound `COC(=O)C1CC(O)CN1C(=O)c1ccc(F)cc1` (centres undefined) returned a melting point of 150 to 152 °C.

`CC1CCCCN1S(=O)(=O)c1cccc(C(=O)O)c1` (centres undefined): the melting point fell in the range of 149 to 151 °C.

In turn, `O=C(O)CCOc1cc(Cl)ccc1Cl` came in with a melting point of 145 to 147 °C.

In turn, `OC(c1ccc(Br)cc1)C(F)(F)F` (centres undefined) showed a melting point of 50 to 52 °C.

In turn, `CS(=O)(=O)CCn1cc(Br)cn1` came in with a melting point of 94 to 96 °C.

For the compound `O=C(O)CNCC1CC1`, the melting point was in the range of 222 to 224 °C.

For `CCOC(=O)CC(O)c1ccc(OCc2ccccc2)cc1` (centres undefined), the melting point was in the range of 61 to 63 °C.

`CC(C)NCc1nc2ccccc2c(=O)[nH]1` returned a melting point of 145 to 147 °C.

Compound `COCCn1nc(C)c(C(C)=O)c1C` yielded a melting point of 31 to 33 °C.

Compound `O=C(O)Cn1cccnc1=O` had a melting point of 211 to 213 °C.

Compound `OCCNc1ccc(-c2ccccc2)nn1` had a melting point of 162 to 164 °C.

Turning to `O=C(CCl)Nc1nnc(-c2ccco2)o1`, the melting point was 194 to 196 °C.

`CC1(C)CCC(=CC(=O)O)CC1` registered a melting point of 88 to 90 °C.

On to `O=c1oc2ccccc2o1`, for which the melting point is 116 to 118 °C.

With `CCOC(=O)c1cc(F)c(F)cc1N`, the melting point is 82 to 84 °C.

Consider `Cc1noc(N)c1S(N)(=O)=O`, for which the melting point lay in the range of 131 to 133 °C.

With `C/C(=N\O)c1ccc(-c2ccc(F)cc2)s1`, the melting point is 139 to 141 °C.

`CCn1nc(N)cc1C1CC1` registered a melting point of 111 to 113 °C.

In the case of `CCOc1cccc2c1OCC(C(=O)O)=C2`, the melting point lay in the range of 219 to 221 °C.

Compound `O=c1[nH][nH]c2cccc(Cl)c12` yielded a melting point of 247 to 249 °C.

Compound `CCOC(=O)C(C#N)=Cc1ccncc1` showed a melting point of 101 to 103 °C.

In the case of `O=C(O)c1ccc(N2C(=O)C=CC2=O)cc1`, the melting point was in the range of 229 to 231 °C.

Compound `Cc1ccc(-c2ccncc2)cc1N` yielded a melting point of 202 to 204 °C.

For `O=C(Nc1nncs1)OCC(F)(F)F`, the melting point was 213 to 215 °C.

As for `CON(C)S(=O)(=O)c1cc([N+](=O)[O-])ccc1Cl`, the melting point was 123 to 125 °C.

Compound `Cc1cc(C)cc(C(=O)N2CCCC(C(=O)O)C2)c1` (centres undefined) gave a melting point of 188 to 190 °C.

`Cc1ccnc(-c2ccc(N)cc2)n1` displayed a melting point of 118 to 120 °C.

Regarding `O=C(O)C1(OCc2ccccc2)CCOCC1`, the melting point is 69 to 71 °C.

Turning to `COCCOc1ccc(C(F)(F)F)cc1NC(=O)C(C)Cl` (centres undefined), the melting point was 59 to 61 °C.

`COc1ccc(Br)cc1C(=O)C(=O)O`: the melting point lay within 137 to 139 °C.

Take `CC(O)CNC(=O)c1cccc(O)c1` (centres undefined): the melting point lay in the range of 116 to 118 °C.

On to `CCC(C)Oc1cc(C(=O)O)ccn1` (centres undefined), for which the melting point is 83 to 85 °C.

As to `O=C(O)CCCc1ccc2ccccc2c1`, the melting point lay in the range of 91 to 93 °C.

Regarding `COc1ccc(C(=O)O)cn1`, the melting point lay in the range of 172 to 174 °C.

`O=C(c1ccccn1)N1CCNCC1`: the melting point lay in the range of 231 to 233 °C.

`Nc1ccc(S(=O)(=O)CC2CCCO2)cc1` (centres undefined) came in with a melting point of 100 to 102 °C.

In turn, `O=S(=O)(c1ccccc1)n1c(I)cc2cccnc21` returned a melting point of 109 to 111 °C.

On to `Cc1ccn(-c2cc(CO)ccn2)n1`, for which the melting point is 92 to 94 °C.

`Cc1cc(C)nc(-n2nc(C(=O)O)cc2C)n1` gave a melting point of 189 to 191 °C.

For `O=c1[nH]cnc2cc3ccccc3cc12`, the melting point is 282 to 284 °C.

Compound `C=C(CC(=O)OC)C(=O)O` displayed a melting point of 67 to 69 °C.

For the compound `O=C(O)CNC(=O)Nc1ccc(Br)cc1`, the melting point lay in the range of 192 to 194 °C.

On to `COc1ccc(Cl)cc1-n1cc(S(=O)(=O)Cl)cn1`, for which the melting point is 89 to 91 °C.

In the case of `CCOc1ccc(CCC(=O)O)cc1`, the melting point lay within 102 to 104 °C.

Take `O=C(CCl)Nc1ccc(Oc2cccc(Cl)c2)cc1`: the melting point lay within 117 to 119 °C.

In turn, `NCC(O)c1ccc(Cl)s1` (centres undefined) gave a melting point of 74 to 76 °C.

`NNC(=O)c1c[nH]c2ccccc12` yielded a melting point of 229 to 231 °C.

In turn, `O=[N+]([O-])c1ccn(CCCBr)n1` returned a melting point of 35 to 37 °C.

In the case of `Clc1cc2nc[nH]c2nc1Cl`, the melting point lay within 119 to 121 °C.

In turn, `Nc1ccc(-n2cccn2)nc1` showed a melting point of 97 to 99 °C.

The compound `Cc1ccc(C)c(-n2c(=O)c(N)c(C)n2C)c1` displayed a melting point of 19 to 20 °C.

In turn, `O=C(Nc1ccc(Br)cc1Cl)OCC(F)(F)F` had a melting point of 70 to 72 °C.

`CNC(=CC(=O)c1ccccc1C)NC` had a melting point of 206 to 208 °C.

Usually melting point stands for the temperature, or range, at which the solid turns liquid.
